{
  "source": "patent US20220168241A1",
  "about": "“SUSTAINED RELEASE C[…] METHOD OF PREPARATION THEREOF” (PHARMATHEN S.A., priority 2019, published 2022)",
  "origin": "cited, not measured here",
  "target": "recombinant μ-opioid receptor (Homo sapiens, UniProt P35372)",
  "sequence (P35372 whole entry, species assumed)": "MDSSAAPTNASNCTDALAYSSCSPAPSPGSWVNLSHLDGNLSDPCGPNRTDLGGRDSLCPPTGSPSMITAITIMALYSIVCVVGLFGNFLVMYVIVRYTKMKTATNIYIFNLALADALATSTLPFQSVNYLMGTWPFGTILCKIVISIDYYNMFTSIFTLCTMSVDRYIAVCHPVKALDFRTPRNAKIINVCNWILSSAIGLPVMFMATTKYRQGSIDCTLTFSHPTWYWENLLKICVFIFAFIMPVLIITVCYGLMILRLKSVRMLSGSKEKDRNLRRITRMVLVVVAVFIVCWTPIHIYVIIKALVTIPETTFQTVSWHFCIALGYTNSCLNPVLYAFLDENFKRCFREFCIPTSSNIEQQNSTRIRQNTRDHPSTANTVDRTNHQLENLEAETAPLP",
  "data": [
    {"compound": "CC[C@@H](c1cccc(O)c1)[C@@H](C)CN(C)C", "note": "[Tapentadol]", "values": [
      {"measurement": "reduced affinity to recombinant μ-opioid receptor compared to morphine", "value": 18, "unit": "times"}
    ]}
  ]
}
